Test results from the supplement of paper PMC13380429.

What was measured:
Details in all cases: 72 h
Caco-2 [1] = assay: cell viability relative to DMSO; higher = less toxic
Calu-3 [2] = assay: as above
HepG2 [3] = assay: as above
U2OS [4] = assay: as above
Vero E6 [5] = assay: as above
Caco-2 [6] = assay: relative viability EC50 (midpoint between 100% and the lowest measured viability); higher = less toxic
Calu-3 [7] = assay: as above
HepG2 [8] = assay: as above
U2OS [9] = assay: as above
Vero E6 [10] = assay: as above
Caco-2 [11] = assay: drug sensitivity score (DSS) for viability; higher = more toxic; extreme values may be limits of the assay
Calu-3 [12] = assay: as above
HepG2 [13] = assay: as above
U2OS [14] = assay: as above
Vero E6 [15] = assay: as above

Compound | cell viability (Caco-2 [1]; 1 nM) [%] | cell viability (Caco-2 [1]; 10 nM) [%] | cell viability (Caco-2 [1]; 100 nM) [%] | cell viability (Caco-2 [1]; 1000 nM) [%] | cell viability (Caco-2 [1]; 10000 nM) [%] | cell viability (Calu-3 [2]; 1 nM) [%] | cell viability (Calu-3 [2]; 10 nM) [%] | cell viability (Calu-3 [2]; 100 nM) [%] | cell viability (Calu-3 [2]; 1000 nM) [%] | cell viability (Calu-3 [2]; 10000 nM) [%] | cell viability (HepG2 [3]; 1 nM) [%] | cell viability (HepG2 [3]; 10 nM) [%] | cell viability (HepG2 [3]; 100 nM) [%] | cell viability (HepG2 [3]; 1000 nM) [%] | cell viability (HepG2 [3]; 10000 nM) [%] | cell viability (U2OS [4]; 1 nM) [%] | cell viability (U2OS [4]; 10 nM) [%] | cell viability (U2OS [4]; 100 nM) [%] | cell viability (U2OS [4]; 1000 nM) [%] | cell viability (U2OS [4]; 10000 nM) [%] | cell viability (Vero E6 [5]; 1 nM) [%] | cell viability (Vero E6 [5]; 10 nM) [%] | cell viability (Vero E6 [5]; 100 nM) [%] | cell viability (Vero E6 [5]; 1000 nM) [%] | cell viability (Vero E6 [5]; 10000 nM) [%] | relative viability EC50 (Caco-2 [6]) [µM] | relative viability EC50 (Calu-3 [7]) [µM] | relative viability EC50 (HepG2 [8]) [µM] | relative viability EC50 (U2OS [9]) [µM] | relative viability EC50 (Vero E6 [10]) [µM] | drug sensitivity score (Caco-2 [11]) | drug sensitivity score (Calu-3 [12]) | drug sensitivity score (HepG2 [13]) | drug sensitivity score (U2OS [14]) | drug sensitivity score (Vero E6 [15])
Cc1c(C)c2c(c(C)c1O)CCC(C)(C(=O)O)O2 (stereo not given) [trolox] | 106 | 103 | 88.5 | 93.3 | 90.9 | 105 | 105 | 98.1 | 106 | 104 | 96.8 | 90.2 | 92.6 | 87.6 | 98.8 | 104 | 95.6 | 105 | 97 | 103 | 94.7 | 105 | 102 | 95.9 | 77.9 | > 10 | > 10 | > 10 | > 10 | > 10 | 0.8 | 0 | 0 | 0 | 1.3
NC(CO)(CO)CO [trometamol] | 93.4 | 102 | 111 | 112 | 97.3 | 92.4 | 117 | 103 | 101 | 108 | 101 | 93.7 | 106 | 86 | 100 | 93.3 | 96.6 | 98.8 | 101 | 107 | 102 | 98.6 | 106 | 86.4 | 95.4 | > 10 | > 10 | > 10 | > 10 | > 10 | 0 | 0 | 0 | 0 | 0
O=P(O)(O)C(O)(Cn1ccnc1)P(=O)(O)O [zoledronic-acid] | 98.2 | 95.1 | 96.8 | 93.2 | 91.6 | 110 | 100 | 91.9 | 93.4 | 97.7 | 101 | 98.7 | 95.2 | 97.7 | 94.1 | 96.5 | 96.2 | 100 | 99.3 | 97.2 | 99.7 | 104 | 100 | 98.9 | 99.3 | > 10 | > 10 | > 10 | > 10 | > 10 | 0 | 0 | 0 | 0 | 0
